Experimental data from the supplement of paper PMC10307832.

Tests used:
Test in all cases: relative viability (nuclei count vs DMSO), 5 days (fraction); higher = more cells survive
[1] = compound: C1=CC2=NC=CN=C2C=C1/C=C/3\C(=O)NC(=O)S3 + COc1cccc2cc(-c3nc([C@H]4CC[C@H](C(=O)O)CC4)n4ncnc(N)c34)[nH]c12 [OSI-027] (partner 0.5 µM)
Procedure, shortened: (§1)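 Lung cancer cell lines in 1536-well plates got either a single drug or a fixed anchor-drug dose together with five library-drug doses (not always all listed) in √10 steps, by pin tool, on the day after seeding. Nuclei were counted after 5 days, and relative viability is the treated-to-vehicle ratio of nuclei counts. Values are medians of duplicate plates.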

BGJ398 + Pictilisib = compound: CCN1CCN(c2ccc(Nc3cc(N(C)C(=O)Nc4c(Cl)c(OC)cc(OC)c4Cl)ncn3)cc2)CC1 [BGJ398] + CS(=O)(=O)N1CCN(Cc2cc3nc(-c4cccc5[nH]ncc45)nc(N4CCOCC4)c3s2)CC1 [Pictilisib] (partner 1 µM)
Procedure, shortened: as §1

BGJ398 + OSI-027 = compound: CCN1CCN(c2ccc(Nc3cc(N(C)C(=O)Nc4c(Cl)c(OC)cc(OC)c4Cl)ncn3)cc2)CC1 [BGJ398] + COc1cccc2cc(-c3nc([C@H]4CC[C@H](C(=O)O)CC4)n4ncnc(N)c34)[nH]c12 [OSI-027] (partner 0.5 µM)
Procedure, shortened: as §1

BGJ398 + Navitoclax = compound: CCN1CCN(c2ccc(Nc3cc(N(C)C(=O)Nc4c(Cl)c(OC)cc(OC)c4Cl)ncn3)cc2)CC1 [BGJ398] + CC1(C)CCC(c2ccc(Cl)cc2)=C(CN2CCN(c3ccc(C(=O)NS(=O)(=O)c4ccc(N[C@H](CCN5CCOCC5)CSc5ccccc5)c(S(=O)(=O)C(F)(F)F)c4)cc3)CC2)C1 [Navitoclax] (partner 0.5 µM)
Procedure, shortened: as §1

UMC-11
relative viability ([1]; first compound 0.02 µM): 0.56 | relative viability ([1]; first compound 0.06325 µM): 0.527 | relative viability ([1]; first compound 0.2 µM): 0.552 | relative viability ([1]; first compound 0.6325 µM): 0.475 | relative viability ([1]; first compound 2 µM): 0.439 | relative viability (BGJ398 + Pictilisib; first compound 0.01 µM): 0.839 | relative viability (BGJ398 + Pictilisib; first compound 0.03162 µM): 0.686 | relative viability (BGJ398 + Pictilisib; first compound 0.1 µM): 0.897 | relative viability (BGJ398 + Pictilisib; first compound 0.3162 µM): 0.73 | relative viability (BGJ398 + Pictilisib; first compound 1 µM): 0.707 | relative viability (BGJ398 + OSI-027; first compound 0.01 µM): 0.494 | relative viability (BGJ398 + OSI-027; first compound 0.03162 µM): 0.449 | relative viability (BGJ398 + OSI-027; first compound 0.1 µM): 0.53 | relative viability (BGJ398 + OSI-027; first compound 0.3162 µM): 0.411 | relative viability (BGJ398 + OSI-027; first compound 1 µM): 0.429 | relative viability (BGJ398 + Navitoclax; first compound 0.01 µM): 0.343 | relative viability (BGJ398 + Navitoclax; first compound 0.03162 µM): 0.336 | relative viability (BGJ398 + Navitoclax; first compound 0.1 µM): 0.314 | relative viability (BGJ398 + Navitoclax; first compound 0.3162 µM): 0.382 | relative viability (BGJ398 + Navitoclax; first compound 1 µM): 0.307
